In paper PMC6225185 (2018):

Tests used:
[1] = system: [d-(TTGGGGT)]4 (DNA, G4) TTGGGGT; assay: 1H NMR titration (T7H6 and T7CH3 shifts); settings: 100 mM KCl, 10 mM K2HPO4; 1 mM EDTA, pH 7.0, 25 °C, 90% H2O/10% D2O; site 1 of 2 (G6-T7); apparent
[2] = system: [d-(TTGGGGT)]4 immobilized (SPR) (DNA, G4) TTGGGGT; assay: SPR steady state; settings: 100 mM KCl; 10 mM HEPES, 3 mM EDTA, 0.005% P20, pH 7.4, 25 °C; dominant mode
[3] = system: [d-(TTGGGGT)]4 (DNA, G4) TTGGGGT; assay: DSC; settings: 100 mM KCl, 10 mM K2HPO4; 1 mM EDTA, pH 7.0; 50 µM quadruplex, D/N = 4.0 (200 µM daunomycin); third transition

- Kb [1]: ~ 1.8–2.3 × 10^4 M^−1
- Kb [2]: ~ 4.1 × 10^3 M^−1
- ΔTm3 [3]: 14.4 ± 1.1 °C
SMILES: COc1cccc2c1C(=O)c1c(O)c3c(c(O)c1C2=O)C[C@@](O)(C(C)=O)C[C@@H]3O[C@H]1C[C@H](N)[C@H](O)[C@H](C)O1
